Data published in ChEMBL document CHEMBL1140088, “N9-substituted 2,4-diaminoquinazolines: synthesis and biological evaluation of lipophilic inhibitors of pneumocystis carinii and toxoplasma gondii dihydrofolate reductase” (J Med Chem, 2008).

Experiments:
Dihydrofolate reductase [1] = molecular target: T1, Dihydrofolate reductase (Mycobacterium avium, UniProt O30463); experiment: Inhibition of Mycobacterium avium dihydrofolate reductase
T1 sequence (O30463 whole entry): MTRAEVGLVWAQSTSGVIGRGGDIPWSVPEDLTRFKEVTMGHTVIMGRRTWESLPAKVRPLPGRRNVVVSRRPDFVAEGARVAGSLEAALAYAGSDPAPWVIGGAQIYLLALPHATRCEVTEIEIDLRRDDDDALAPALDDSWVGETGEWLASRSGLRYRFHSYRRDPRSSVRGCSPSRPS

[2] = molecular target: T2, Bifunctional dihydrofolate reductase-thymidylate synthase (Toxoplasma gondii, UniProt Q07422)
T2 sequence (Q07422 whole entry): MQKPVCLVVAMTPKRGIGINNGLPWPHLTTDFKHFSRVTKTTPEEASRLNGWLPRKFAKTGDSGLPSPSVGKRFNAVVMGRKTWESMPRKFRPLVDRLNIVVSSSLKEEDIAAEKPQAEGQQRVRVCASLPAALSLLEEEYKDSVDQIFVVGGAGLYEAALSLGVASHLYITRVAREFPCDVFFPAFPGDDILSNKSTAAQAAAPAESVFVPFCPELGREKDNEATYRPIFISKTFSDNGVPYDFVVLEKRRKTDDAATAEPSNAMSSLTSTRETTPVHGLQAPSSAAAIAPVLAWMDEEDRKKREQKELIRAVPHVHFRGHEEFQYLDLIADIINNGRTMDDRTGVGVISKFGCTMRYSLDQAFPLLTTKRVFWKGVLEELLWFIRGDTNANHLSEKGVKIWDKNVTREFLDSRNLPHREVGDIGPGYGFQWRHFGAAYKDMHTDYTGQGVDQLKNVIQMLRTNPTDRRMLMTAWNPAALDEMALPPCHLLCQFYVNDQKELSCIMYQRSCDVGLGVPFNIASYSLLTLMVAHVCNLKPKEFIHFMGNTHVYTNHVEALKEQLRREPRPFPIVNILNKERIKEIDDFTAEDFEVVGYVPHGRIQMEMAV
Description: Inhibition of Toxoplasma gondii dihydrofolate reductase

Dihydrofolate reductase [3] = molecular target: T3, Dihydrofolate reductase (Rattus norvegicus, UniProt Q920D2)
T3 sequence (Q920D2 whole entry): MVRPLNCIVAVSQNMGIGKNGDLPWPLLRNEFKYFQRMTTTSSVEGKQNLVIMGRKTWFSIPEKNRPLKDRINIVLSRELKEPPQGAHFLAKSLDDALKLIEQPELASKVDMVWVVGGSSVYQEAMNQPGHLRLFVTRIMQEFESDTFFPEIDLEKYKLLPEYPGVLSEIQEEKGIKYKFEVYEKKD
Description: Inhibition of rat liver dihydrofolate reductase

Dihydrofolate reductase [4] = molecular target: T4, Dihydrofolate reductase (Pneumocystis carinii, UniProt P16184)
T4 sequence (P16184 whole entry): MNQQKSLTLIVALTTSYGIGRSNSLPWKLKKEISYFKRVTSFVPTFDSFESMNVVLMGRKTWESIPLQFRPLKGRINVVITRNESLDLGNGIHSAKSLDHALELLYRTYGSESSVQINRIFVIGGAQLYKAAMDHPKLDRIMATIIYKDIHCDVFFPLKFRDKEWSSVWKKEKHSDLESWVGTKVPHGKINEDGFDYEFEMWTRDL
Description: Inhibition of Pneumocystis carinii dihydrofolate reductase

| SMILES | IC50 (Dihydrofolate reductase [1]) | IC50 [2] | IC50 (Dihydrofolate reductase [3]) | IC50 (Dihydrofolate reductase [4]) |
| --- | --- | --- | --- | --- |
| CCN(Cc1cc(OC)ccc1OC)c1ccc2nc(N)nc(N)c2c1 | 0.98 nM | 3.7 nM | 4.8 nM | 9.9 nM |
| CCN(Cc1ccccc1)c1ccc2nc(N)nc(N)c2c1 |  | 3.6 nM | 4.1 nM | 21 nM |
| CCN(Cc1cc(Cl)cc(Cl)c1Cl)c1ccc2nc(N)nc(N)c2c1 | 14 nM | 19 nM | 19 nM | 6.9 nM |
| CCN(Cc1ccc2ccccc2c1)c1ccc2nc(N)nc(N)c2c1 | 2.3 nM | 12 nM | 14.5 nM | 7.2 nM |
| CCN(Cc1cccc2ccccc12)c1ccc2nc(N)nc(N)c2c1 | 2.9 nM | 7.8 nM | 6.5 nM | 2.5 nM |
| CCCN(Cc1cc(OC)ccc1OC)c1ccc2nc(N)nc(N)c2c1 | 3.3 nM | 9.5 nM | 5.3 nM | 38 nM |
